Measurements taken from article PMC11060137, “A Phase I Study of KIN-3248, an Irreversible Small-molecule Pan-FGFR Inhibitor, in Patients with Advanced FGFR2/3-driven Solid Tumors” (Cancer Research Communications, 2024).
Read-outs that look alike come from different tables or passages of the source.

Tests used:
[1] = tested on: ctDNA; assay: ctDNA molecular response (change in mean VAF, PredicineATLAS); assay type: in vivo, human; conditions: after 1 cycle; 26 patients evaluable for RECIST and ctDNA response
Description: Whole blood was collected into Streck Cell Free BCT DNA tubes on cycle 1 day 1 and cycle 2 day 1. Samples were processed to extract plasma followed by cell-free DNA isolation, which was then interrogated by PredicineATLAS, a 600 gene assay able to detect SNVs, indels, rearrangements, fusions, and copy-number gains, as described previously ([19]).
For each patient with available paired ctDNA, the change in ctDNA after one cycle of treatment was summarized by calculating the mean variant allele frequency (VAF) of all somatic mutations at each timepoint and then taking the ratio as follows: [(mean VAF^C2D1/mean VAF^C1D1) −1]*100 ([20]). For somatic mutations detected in only one sample of a patient-matched pair, the VAF was imputed to be zero for calculation purposes, when the mutation was not detected. Change in match pair ctDNA was correlated both categorically with RECIST v 1.1 response and continuously (Pearson R) with the best % change in target lesions. Biomarker analyses were conducted using R [R Core Team 2023 ([21])].

[2] = tested on: patients with advanced solid tumors harboring FGFR2 and/or FGFR3 gene alterations
Description: The study was divided into two parts. […] The secondary objectives included antitumor activity in Part A, determination of pharmacokinetics and pharmacodynamics.
Dose level 1 was started at 5 mg oral daily, and patients were escalated on study to 50 mg daily. On the basis of ongoing efficacy, toxicity, and pharmacokinetic analysis, a planned amendment added additional cohorts up to 80 mg orally daily to define the MTD/RP2D. […] One cycle was 28 days of continuous dosing. Intrapatient dose escalation after safely tolerating two cycles was allowed if per protocol criteria were met. Patients continued therapy until evidence of disease progression, intolerance or unacceptable toxicity, withdrawal of consent, investigator decision, sponsor decision, or death.
Patients were evaluated with medical history, physical examinations, and clinical laboratory on days 1, 8, 15, and 22 of cycle 1; days 1 and 15 from cycle 2 through cycle 5; and day 1 of each subsequent cycle. […] Except for hyperphosphatemia, adverse events (AE) were graded according to the NCI-CTCAE (Common Terminology Criteria for Adverse Events) Version 5.0 at each study visit and for approximately 30 days following end of treatment.
The primary endpoints for the overall study, included: the incidence of DLTs, incidence of AEs, treatment-emergent AEs (TEAE), and treatment-related AEs (TRAE).

Compound: C=CC(=O)N1C[C@@H](n2nc(C#Cc3c(F)cc4c(ncn4C4CC4)c3F)c(C(N)=O)c2NC)C[C@@H]1COC [KIN-3248]
- Patients with greater than 50% decrease in mean VAF [1]: Six
- Patients with treatment reduced and discontinued because of TEAEs ([2]; 7 patients): 13.0%
- Patients with treatment-related grade 3 events ([2]; 11 of 54 patients): 20.4%
- Patients with treatment interrupted because of TEAEs ([2]; 16 patients): 29.6%
- Patients with TEAE grade ≥3 events ([2]; 25 of 54 patients): 46.3%
- Patients with TRAEs of any grade ([2]; 47 of 54 patients): 87.0%
- Patients with TEAEs of any grade ([2]; 53 of 54 patients): 98.1%
- TRAE of any grade: diarrhea ([2]; 54 patients): 25.9%
- TRAE of any grade: hyperphosphatemia ([2]; 54 patients): 64.8%
- TRAE of any grade: stomatitis ([2]; 54 patients): 16.7%
- Number of dose-limiting toxicities (DLT) ([2]; 54 patients, 5-50 mg orally daily, DLT at dose level 1 (5 mg): grade 3 drug hypersensitivity reaction): one
- Patient with any TEAE, n (%) ([2]; CTCAE (V5) Grade 1–2, N = 54): 28 (51.9%)
- TEAE Alanine aminotransferase increased, n (%) ([2]; CTCAE (V5) Grade 1–2, N = 54): 5 (9.3%)
- TEAE Aspartate aminotransferase increased, n (%) ([2]; CTCAE (V5) Grade 1–2, N = 54): 4 (7.4%)
- TEAE Blood and lymphatic system disorders, n (%) ([2]; CTCAE (V5) Grade 1–2, N = 54): 9 (16.7%)
- TEAE Blood creatinine increased, n (%) ([2]; CTCAE (V5) Grade 1–2, N = 54): 7 (13.0%)
- TEAE Constipation, n (%) ([2]; CTCAE (V5) Grade 1–2, N = 54): 12 (22.2%)
- TEAE Decreased appetite, n (%) ([2]; CTCAE (V5) Grade 1–2, N = 54): 6 (11.1%)
- TEAE Diarrhea, n (%) ([2]; CTCAE (V5) Grade 1–2, N = 54): 17 (31.5%)
- TEAE Dry mouth, n (%) ([2]; CTCAE (V5) Grade 1–2, N = 54): 8 (14.8%)
- TEAE Eye disorders, n (%) ([2]; CTCAE (V5) Grade 1–2, N = 54): 12 (22.2%)
- TEAE Fatigue, n (%) ([2]; CTCAE (V5) Grade 1–2, N = 54): 11 (20.4%)
- TEAE Gastrointestinal disorders, n (%) ([2]; CTCAE (V5) Grade 1–2, N = 54): 35 (64.8%)
- TEAE General disorders and administration site conditions, n (%) ([2]; CTCAE (V5) Grade 1–2, N = 54): 18 (33.3%)
- TEAE Hypercalcemia, n (%) ([2]; CTCAE (V5) Grade 1–2, N = 54): 5 (9.3%)
- TEAE Hyperphosphatemia, n (%) ([2]; CTCAE (V5) Grade 1–2, N = 54): 29 (53.7%)
- TEAE Infections and infestations, n (%) ([2]; CTCAE (V5) Grade 1–2, N = 54): 4 (7.4%)
- TEAE Investigations, n (%) ([2]; CTCAE (V5) Grade 1–2, N = 54): 19 (35.2%)
- TEAE Metabolism and nutrition disorders, n (%) ([2]; CTCAE (V5) Grade 1–2, N = 54): 30 (55.6%)
- TEAE Musculoskeletal and connective tissue disorders, n (%) ([2]; CTCAE (V5) Grade 1–2, N = 54): 14 (25.9%)
- TEAE Nausea, n (%) ([2]; CTCAE (V5) Grade 1–2, N = 54): 6 (11.1%)
- TEAE Nervous system disorders, n (%) ([2]; CTCAE (V5) Grade 1–2, N = 54): 7 (13.0%)
- TEAE Psychiatric disorders, n (%) ([2]; CTCAE (V5) Grade 1–2, N = 54): 7 (13.0%)
- TEAE Respiratory, thoracic, and mediastinal disorders, n (%) ([2]; CTCAE (V5) Grade 1–2, N = 54): 7 (13.0%)
- TEAE Skin and subcutaneous tissue disorders, n (%) ([2]; CTCAE (V5) Grade 1–2, N = 54): 14 (25.9%)
- TEAE Stomatitis, n (%) ([2]; CTCAE (V5) Grade 1–2, N = 54): 11 (20.4%)
- TEAE Vascular disorders, n (%) ([2]; CTCAE (V5) Grade 1–2, N = 54): 5 (9.3%)
- Patient with any TEAE, n (%) ([2]; CTCAE (V5) Grade 3, N = 54): 18 (33.3%)
- TEAE Alanine aminotransferase increased, n (%) ([2]; CTCAE (V5) Grade 3, N = 54): 1 (1.9%)
- TEAE Anemia, n (%) ([2]; CTCAE (V5) Grade 3, N = 54): 2 (3.7%)
- TEAE Aspartate aminotransferase increased, n (%) ([2]; CTCAE (V5) Grade 3, N = 54): 2 (3.7%)
- TEAE Blood and lymphatic system disorders, n (%) ([2]; CTCAE (V5) Grade 3, N = 54): 3 (5.6%)
- TEAE Blood creatinine increased, n (%) ([2]; CTCAE (V5) Grade 3, N = 54): 0
- TEAE Constipation, n (%) ([2]; CTCAE (V5) Grade 3, N = 54): 0
- TEAE Decreased appetite, n (%) ([2]; CTCAE (V5) Grade 3, N = 54): 0
- TEAE Diarrhea, n (%) ([2]; CTCAE (V5) Grade 3, N = 54): 0
- TEAE Dry mouth, n (%) ([2]; CTCAE (V5) Grade 3, N = 54): 0
- TEAE Eye disorders, n (%) ([2]; CTCAE (V5) Grade 3, N = 54): 0
- TEAE Fatigue, n (%) ([2]; CTCAE (V5) Grade 3, N = 54): 0
- TEAE Gastrointestinal disorders, n (%) ([2]; CTCAE (V5) Grade 3, N = 54): 5 (9.3%)
- TEAE General disorders and administration site conditions, n (%) ([2]; CTCAE (V5) Grade 3, N = 54): 0
- TEAE Hypercalcemia, n (%) ([2]; CTCAE (V5) Grade 3, N = 54): 1 (1.9%)
- TEAE Hyperphosphatemia, n (%) ([2]; CTCAE (V5) Grade 3, N = 54): 8 (14.8%)
- TEAE Infections and infestations, n (%) ([2]; CTCAE (V5) Grade 3, N = 54): 4 (7.4%)
- TEAE Investigations, n (%) ([2]; CTCAE (V5) Grade 3, N = 54): 2 (3.7%)
- TEAE Metabolism and nutrition disorders, n (%) ([2]; CTCAE (V5) Grade 3, N = 54): 10 (18.5%)
- TEAE Musculoskeletal and connective tissue disorders, n (%) ([2]; CTCAE (V5) Grade 3, N = 54): 1 (1.9%)
- TEAE Nausea, n (%) ([2]; CTCAE (V5) Grade 3, N = 54): 0
- TEAE Nervous system disorders, n (%) ([2]; CTCAE (V5) Grade 3, N = 54): 2 (3.7%)
- TEAE Psychiatric disorders, n (%) ([2]; CTCAE (V5) Grade 3, N = 54): 0
